Measurements reported in ChEMBL document CHEMBL5649166, “RIP3 induces apoptosis independent of pronecrotic kinase activity” (Mol Cell, 2014).

Assays:
Assay type in all cases: toxicity, cell-based
3T3SA [1] = assay: Induction of apoptosis in mouse 3T3SA cells transfected with Caspase8 siRNA incubated for 2.5 hrs by Cell Titer-Glo luminescent cell viability assay
3T3SA [2] = assay: Induction of apoptosis in vICA expression plasmid transfected mouse 3T3SA cells co-transfected with shRNA-resistant RIP3 D161G mutant incubated for 12 hrs by Cell Titer-Glo luminescent cell viability assay
3T3SA [3] = assay: Induction of apoptosis in RIP3 shRNA transfected mouse 3T3SA cells co-transfected with shRNA resistant RIP3 K51A mutant assessed as accumulation of RIP3 K51A mutant in pellet incubated for 3 hrs in presence of zVAD by immunoblot analysis
MEF = assay: Induction of apoptosis in Casp8-/- MEF cells incubated for 18 hrs by Cell Titer-Glo luminescent cell viability assay; details: mouse
3T3SA [4] = assay: Induction of apoptosis in vICA expression plasmid transfected mouse 3T3SA cells co-transfected with shRNA-resistant RIP3 D143N mutant incubated for 12 hrs by Cell Titer-Glo luminescent cell viability assay
3T3SA [5] = assay: Induction of apoptosis in RIP3 shRNA transfected mouse 3T3SA cells co-transfected with shRNA resistant RIP3 assessed as accumulation of wildtype RIP3 in pellet incubated for 3 hrs in presence of zVAD by immunoblot analysis

`CC(C)S(=O)(=O)c1ccc2nccc(Nc3ccc4scnc4c3)c2c1` was tested, and the Activity (3T3SA [1]) was “Non-Toxic”, the Activity (3T3SA [2]) was “Non-Toxic” and the Activity (3T3SA [3]) was “Toxic”. For the same molecule, the Activity (MEF) was “Non-Toxic”, the Activity (3T3SA [4]) was “Non-Toxic” and the Activity (3T3SA [5]) was “Toxic”.
